Results on four compounds are retold here after US20050176641A1, “Long lasting natriuretic peptide derivatives” (CONJUCHEM, INC., priority 2000, published 2005).

The target in data set [1] is T1, natriuretic peptide receptors with guanylate cyclase activity (Homo sapiens, UniProt P16066).
T1 construct: Hela cells express high levels of natriuretic peptide receptors with guanylate cyclase activity; endogenous in cells; host or cells: HeLa (human cervix epithelial adenocarcinoma)
T1 sequence (P16066 33-1061): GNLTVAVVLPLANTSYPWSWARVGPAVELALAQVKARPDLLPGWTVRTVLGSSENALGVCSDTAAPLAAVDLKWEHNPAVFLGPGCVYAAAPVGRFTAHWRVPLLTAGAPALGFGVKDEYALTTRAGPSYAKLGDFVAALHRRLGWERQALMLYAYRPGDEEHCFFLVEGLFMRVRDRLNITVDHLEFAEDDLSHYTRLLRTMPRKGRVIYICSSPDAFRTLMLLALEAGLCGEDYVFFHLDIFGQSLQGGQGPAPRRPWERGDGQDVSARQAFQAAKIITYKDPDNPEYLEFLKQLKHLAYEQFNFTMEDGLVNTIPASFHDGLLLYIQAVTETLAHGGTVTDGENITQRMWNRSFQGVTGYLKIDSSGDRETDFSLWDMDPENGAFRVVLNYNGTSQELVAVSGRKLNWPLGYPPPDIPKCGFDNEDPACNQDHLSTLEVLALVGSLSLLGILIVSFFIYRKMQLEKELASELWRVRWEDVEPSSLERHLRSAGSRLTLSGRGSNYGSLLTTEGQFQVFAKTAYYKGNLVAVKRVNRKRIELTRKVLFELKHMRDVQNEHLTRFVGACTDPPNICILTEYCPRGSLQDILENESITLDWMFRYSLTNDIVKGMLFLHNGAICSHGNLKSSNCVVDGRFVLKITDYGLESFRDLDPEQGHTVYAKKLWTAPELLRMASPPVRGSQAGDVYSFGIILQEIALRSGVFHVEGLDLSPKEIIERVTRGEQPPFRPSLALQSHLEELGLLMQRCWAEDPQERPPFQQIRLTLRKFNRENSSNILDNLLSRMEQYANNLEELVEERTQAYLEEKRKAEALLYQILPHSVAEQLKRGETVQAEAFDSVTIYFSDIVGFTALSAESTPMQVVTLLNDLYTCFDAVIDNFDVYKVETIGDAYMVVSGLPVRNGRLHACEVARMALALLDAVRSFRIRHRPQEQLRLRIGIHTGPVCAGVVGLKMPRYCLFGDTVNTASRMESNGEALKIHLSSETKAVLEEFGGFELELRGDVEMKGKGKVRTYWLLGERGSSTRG
The experiment in a line: cGMP production in human Hela cells. The data set is classed as cell-based.
Experimental: For in vitro activity studies, a human cervix epithelial adenocarcinoma cell line was used. Hela cells express high levels of natriuretic peptide receptors with guanylate cyclase activity.
One day prior cGMP experiments, cells are seeded in 48-wells plate (5×10^4 cells per well) and incubated overnight. The day of the experiment cells are washed twice in serum-free media and then incubated with or without NP derivatives or native ANP or BNP for one hour, in presence of 3-isobutyl-1-methylxanthine to prevent cGMP degradation. Incubation is terminated by removing the assay medium and by adding HCl to the cells for 10 minutes. The supernatants were then collected, centrifuged and cGMP levels are assessed using the direct cGMP EIA kit from Sigma.

A further data set has as its target NPR receptors. The experiment in a line: Binding to guinea pig adrenal gland membranes by displacement of 125I-rANP. On the procedure:
The potency of NP derivatives is evaluated as their ability to bind NPR receptors in guinea pig adrenal glands and to elevate cGMP levels in a rat primary lung fibroblasts assay. Others cell lines can be used to perform these in vitro assays such as aortic smooth muscle cells, glomeruli mesangial cells and adrenal cells. Human, rat, and ginea pig cell lines or other species cell lines can be used with a preference for human cell lines.
Membranes for binding studies are prepared as follow. Adrenal glands were collected from anesthetized normal Duncan Hartley Guinea Pig and homogenized using a polytron in 50 mM Tris-HCl buffer containing 150 mM NaCl, 5 mM MgCl2, 5 mM MnCl2; pH 7.4 at 25° C. The homogenate was centrifuged for 10 minutes at 39,000×g (4° C.). The pellet was resuspended and washed. Finally, the membranes were resuspended in the same buffer supplemented with 1 mM Na2EDTA+0.2% BSA. Protein concentration is measured using the BCA protein assay kit (Pierce). The binding assay is done by incubation of membranes with 0.016 nM ^125I-rANF and increasing concentrations of either NP peptides or NP derivatives (10^−5-10^−11 M) for 60 minutes at 4° C. All assays were done in duplicate. Separation of bound and free radioactive rANF was achieved by rapid filtration through polyethylenimine-treated Whatman GF/C filters soaked in assay buffer. Filters were washed, dried and counted for radioactivity in a gamma-counter.
On the technique in general: In a radioligand displacement assay an active substance lowers the binding of a labelled ligand.

The conditions of data set [2]: literature values; cited from earlier work.
Where [3] appears, read: human Hela cells, one hour incubation, with 3-isobutyl-1-methylxanthine, read-out: EC50 (M), increase of cGMP production.

Where two headings read alike, the source gives them in different places. Positions of bridges follow the written chain, without caps; N, C: chain ends. Residues, ends and D or L forms follow the SMILES beside them.

With `CC[C@H](C)[C@@H]1NC(=O)[C@H](CCCNC(=N)N)NC(=O)[C@H](CC(=O)O)NC(=O)[C@H]([C@@H](C)CC)NC(=O)[C@H](CCCNC(=N)N)NC(=O)CNC(=O)CNC(=O)[C@H](Cc2ccccc2)NC(=O)[C@@H](N)CSSC[C@@H](C(=O)N[C@@H](CC(N)=O)C(=O)N[C@@H](CO)C(=O)N[C@@H](Cc2ccccc2)C(=O)N[C@@H](CCCNC(=N)N)C(=O)N[C@@H](Cc2ccc(O)cc2)C(N)=O)NC(=O)CNC(=O)[C@H](CC(C)C)NC(=O)CNC(=O)[C@H](CO)NC(=O)[C@H](CCC(N)=O)NC(=O)[C@H](C)NC(=O)CNC1=O` [Example 13] (H-CFGGRIDRIGAQSGLGCNSFRY-NH2; disulfide 1-17), the EC50 in data set [1] (setting [3]) came out at 2.72e-08 M.

In the case of `CC[C@H](C)[C@@H]1NC(=O)[C@H](CCCNC(=N)N)NC(=O)[C@H](CC(=O)O)NC(=O)[C@H](CCSC)NC(=O)[C@H](CCCNC(=N)N)NC(=O)CNC(=O)CNC(=O)[C@H](Cc2ccccc2)NC(=O)[C@@H](N)CSSC[C@@H](C(=O)N[C@@H](CC(N)=O)C(=O)N[C@@H](CO)C(=O)N[C@@H](Cc2ccccc2)C(=O)N[C@@H](CCCNC(=N)N)C(=O)N[C@@H](Cc2ccc(O)cc2)C(N)=O)NC(=O)CNC(=O)[C@H](CC(C)C)NC(=O)CNC(=O)[C@H](CO)NC(=O)[C@H](CCC(N)=O)NC(=O)[C@H](C)NC(=O)CNC1=O` [Example 17] (H-CFGGRMDRIGAQSGLGCNSFRY-NH2; disulfide 1-17), in data set [1] (setting [3]), the EC50 came to 2.21e-08 M.

For `CC[C@H](C)[C@@H]1NC(=O)[C@H](CCCNC(=N)N)NC(=O)[C@H](CC(=O)O)NC(=O)[C@H](CCSC)NC(=O)[C@H](CCCCN)NC(=O)[C@H](CCCNC(=N)N)NC(=O)CNC(=O)[C@H](Cc2ccccc2)NC(=O)[C@@H](NC(=O)CNC(=O)[C@H](CO)NC(=O)CNC(=O)[C@H](CCC(N)=O)NC(=O)[C@@H](NC(=O)[C@H](CCSC)NC(=O)[C@H](CCCCN)NC(=O)[C@@H]2CCCN2C(=O)[C@@H](N)CO)C(C)C)CSSC[C@@H](C(=O)N[C@@H](CCCCN)C(=O)N[C@H](C(=O)N[C@@H](CC(C)C)C(=O)N[C@@H](CCCNC(=N)N)C(=O)N[C@@H](CCCNC(=N)N)C(=O)N[C@@H](Cc2c[nH]cn2)C(N)=O)C(C)C)NC(=O)CNC(=O)[C@H](CC(C)C)NC(=O)CNC(=O)[C@H](CO)NC(=O)[C@H](CO)NC(=O)[C@H](CO)NC(=O)[C@H](CO)NC1=O` [Example 21], the Ki at NPR receptors (displacement of 125I-ANF, read-out: apparent inhibition constant (Ki value)) stood at 4.8 nM; on NPR receptors (displacement of 125I-rANF, text gives the same Ki in M, read-out: KI (inhibition constant)), 4.86 nM. Also, the EC50 was found to be 5.41e-09 M on NPR receptors (read-out: EC50 (M), concentration at 50% of inhibition, displacement of 0.016 nM 125I-rANF, 60 minutes at 4° C.) and 1.99e-08 M in data set [1].

“human BNP: native human Brain Natriuretic Peptide, 32 amino acid peptide”: the in vivo half-life in data set [2] is given as 12.7 min.
